“And” between values parts separate entries of the source, which are not always exact repeats. Equal entries are not always repeated.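 Method: 48-hour compound exposure of cells in 96-well plates, five concentrations, linear interpolation of endpoints. The concentration for 50% growth inhibition is given as GI50. Definition used: TGI = concentration required for complete inhibition of growth.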
Columns and labels:
Assay in all cases: NCI anticancer screen, dose series, 48 h
[1] = tested on: U251 CNS
[2] = tested on: SNB-19 CNS
[3] = tested on: NCI-H226 lung
[4] = tested on: BT-549 breast
[5] = tested on: OVCAR-5 ovarian
[6] = tested on: HOP-92 NSCLC
[7] = tested on: CCRF-CEM leukemia
[8] = tested on: 786-0 renal
[9] = tested on: HT29 colon
[10] = tested on: HCC-2998 colon

Structure (SMILES)	GI50 [1]	TGI [1]	GI50 [2]	TGI [2]	GI50 [3]	TGI [3]	GI50 [4]	TGI [4]	GI50 [5]	TGI [5]	GI50 [6]	TGI [6]	GI50 [7]	TGI [7]	GI50 [8]	TGI [8]	GI50 [9]	TGI [9]	GI50 [10]	TGI [10]
NC1=NC(=O)/C(=C/c2ccc3ncccc3c2)S1	> 25 µM	> 25 µM	> 25 µM	> 25 µM	> 25 µM	> 25 µM	> 18.8 µM	> 25 µM	> 25 µM	> 25 µM	> 25 µM	> 25 µM	> 25 µM	> 25 µM	> 25 µM	> 25 µM	> 25 µM	> 25 µM	> 25 µM	> 25 µM
COc1ccc(-c2[nH]nc(N)c2-c2cc(OC)c3c(c2)OCO3)cc1	4.29 µM	> 100 µM	5.23 µM	> 100 µM	8.36 µM	> 100 µM	7.71 µM	> 100 µM	16 µM	> 100 µM	3.54 µM	46.8 µM	3.47 µM	38.8 µM	7.82 µM	> 100 µM	3.65 µM	25.7 µM	5.97 µM	31.4 µM
CCCCCCCCCCCCCCCCCCOc1ccccc1CC(=O)OCC[N+](CC)(CC)CC	1.24 µM	3.56 µM	1.52 µM	5.6 µM	1.27 µM	5.64 µM	1.95 µM	9.22 µM	2 µM	8.52 µM	1.1 µM	3.52 µM	1.48 µM	13.1 µM	1.64 µM	7.54 µM	1.63 µM	8.58 µM	1.22 µM	3.9 µM
COc1cccc(/C=C/c2ccnc3ccccc23)c1OC	–	> 10 µM	–	> 10 µM	–	> 10 µM	–	> 10 µM	–	> 10 µM	–	> 10 µM	–	> 10 µM	–	> 10 µM	–	> 10 µM	–	> 10 µM
NC(=O)CC1(O)C=C(Br)C(=O)C(Br)=C1	10.6 µM	24.1 µM	18.1 µM	32.6 µM	20.5 µM	46.3 µM	1.91 µM	6.97 µM	8.08 µM	21.4 µM	1.85 µM	4.26 µM	0.194 µM	0.434 µM	8.76 µM	> 35.7 µM	4.03 µM	19 µM	18.2 µM	33 µM
COc1ccc2nc3cc([N+](=O)[O-])ccc3c(NNc3ccccc3)c2c1	8.08 µM	22 µM and > 100 µM	18.2 µM	57.1 µM and > 100 µM	1.63 µM	18.1 µM and 7.66 µM	15.9 µM	35.7 µM and > 100 µM	14.9 µM	47.2 µM and > 100 µM	11.5 µM	28 µM and 47.4 µM	10.9 µM	> 100 µM	–	40.4 µM and 44 µM	–	29.9 µM and 39.2 µM	–	46.3 µM
O=c1c2ccccc2nc(-c2ccccc2Cl)n1-c1nnc(C(F)(F)F)s1	2.46 µM	12.9 µM	3.66 µM	> 100 µM	2.4 µM	8.55 µM	3.36 µM	10.9 µM	4.33 µM	43.8 µM	0.514 µM	3.43 µM	3.13 µM	40.7 µM	3.18 µM	11.4 µM	3.18 µM	13.6 µM	4.24 µM	19.6 µM
CN1CCN(c2ccc(NC(=O)c3cncnc3Nc3ccc(OCc4cccc(F)c4)c(Cl)c3)cc2)CC1	1.07 µM	2.52 µM	2.81 µM	18.7 µM	40.9 µM	> 50 µM	> 50 µM	> 50 µM	1.6 µM	7.29 µM	1.95 µM	18.1 µM	1.27 µM	4.23 µM	0.992 µM	2.03 µM	1.1 µM	2.65 µM	1.13 µM	2.7 µM
COc1cc(/C=C/C(=O)/C=C/c2cc3ccc(Cl)cc3n(Cc3ccccc3)c2=O)ccc1O	1.17 µM	2.55 µM	1.73 µM	3.88 µM	2.02 µM	4.66 µM	1.69 µM	4.53 µM	2.65 µM	5.78 µM	2.21 µM	5.44 µM	1.4 µM	> 100 µM	1.78 µM	3.58 µM	0.424 µM	1.68 µM	1.98 µM	3.48 µM
O=C(/C=C/C(Cl)(Cl)Cl)Nc1ccc(Cl)cc1	–	26.2 µM	–	32 µM	–	36.6 µM	–	31.1 µM	–	27.5 µM	–	4.08 µM	–	3.97 µM	–	2.96 µM	–	4.03 µM	–	14.5 µM
CCOC(=O)/C(C#N)=C1\SS/C(=C(/C#N)C(=O)OCC)S1	19 µM	38 µM	35.8 µM	> 100 µM	19.6 µM	38.6 µM	17.8 µM	32.7 µM	22.4 µM	42.8 µM	14.3 µM	28.3 µM	4.62 µM	67.7 µM	19.2 µM	34.1 µM	3.92 µM	22.3 µM	20.1 µM	39.9 µM
CCCCN=C(N)c1ccc(N2CCCN(c3ccc(C(N)=NCCCC)cc3)CC2)cc1	4.81 µM	> 100 µM	> 21.4 µM	> 100 µM	1.66 µM	99.8 µM	14.4 µM	> 58.3 µM	45.7 µM	> 100 µM	14.6 µM	> 84 µM	16.3 µM	> 100 µM	> 74.6 µM	> 100 µM	10.7 µM	> 59.7 µM	8.88 µM	58.2 µM
COc1ccc(Cn2cc3c(c2)-c2oncc2CC3)cc1OC	0.211 µM	> 28.1 µM	0.258 µM	> 50 µM	0.704 µM	> 50 µM	0.344 µM	> 50 µM	0.339 µM	> 41.9 µM	1.15 µM	36.3 µM	0.132 µM	–	0.536 µM	> 21.2 µM	0.153 µM	1.28 µM	0.172 µM	2.54 µM
Cc1ccc(NC(=O)Nc2c(Cl)cccc2Cl)cn1	5.07 µM	> 100 µM	26.1 µM	> 100 µM	> 100 µM	> 100 µM	59.1 µM	> 100 µM	72.9 µM	> 100 µM	16.8 µM	> 100 µM	5.79 µM	> 100 µM	61.2 µM	> 100 µM	3.93 µM	15.6 µM	28 µM	> 100 µM
Nc1cc(C(F)(F)F)c(-c2cc(N3CCOCC3)nc(N3CCOCC3)n2)cn1	1.51 µM and 1.78 µM	> 25 µM	2.28 µM and 2.71 µM	> 100 µM	0.839 µM and 0.592 µM	4.42 µM and 4.6 µM	0.558 µM and 0.727 µM	> 7.16 µM and 6.67 µM	0.692 µM and 0.848 µM	7.16 µM and 8.7 µM	0.162 µM and 0.0723 µM	1.17 µM and 0.617 µM	1.56 µM and 1.49 µM	> 100 µM	1.65 µM and 2.1 µM	9.77 µM and 8.63 µM	0.547 µM and 0.531 µM	> 7.41 µM and 3.66 µM	0.85 µM and 1.12 µM	4.14 µM and 5.45 µM
COc1ccc(C(=O)O[C@H]2[C@H](O[C@H]3[C@@H](O)COC(O[C@H]4C[C@H]5[C@@H]6CC=C7C[C@@H](O)CC[C@]7(C)[C@H]6CC[C@]5(C)[C@H]4[C@H](C)C(=O)CCC(C)C)[C@@H]3OC(C)=O)OC[C@@H](O)[C@@H]2O)c(C)c1 (stereo partly specified)	< 0.01 µM	18.7 µM	< 0.01 µM	10.3 µM	0.0423 µM	30.6 µM	< 0.01 µM	10.7 µM	0.103 µM	26.9 µM	< 0.01 µM	0.0866 µM	< 0.01 µM	0.13 µM	< 0.01 µM	7.38 µM	0.0712 µM	21.6 µM	4.1 µM	25.2 µM
CC[C@]1(O)CC2CN(CCc3c([nH]c4ccccc34)[C@@](C(=O)OC)(c3cc4c(cc3OC)N(C=O)[C@H]3[C@@](O)(C(=O)OC)[C@H](OC(C)=O)[C@]5(CC)C=CCN6CC[C@]43[C@@H]65)C2)C1 (stereo partly specified)	< 0.005 µM	–	< 0.005 µM	> 50 µM	< 0.005 µM	0.0319 µM	0.00665 µM	0.149 µM	0.0253 µM	> 50 µM	–	> 50 µM	< 0.005 µM	–	0.014 µM	> 22.5 µM	< 0.005 µM	0.0195 µM	< 0.005 µM	–
COc1ccc2nc(-c3ccccc3)cc(Nc3cccc(C(C)=O)c3)c2c1	1.96 µM	16.8 µM	17.2 µM	> 100 µM	16.1 µM	34.3 µM	18.2 µM	40.3 µM	13.1 µM	29.9 µM	15.2 µM	38.4 µM	> 100 µM	> 100 µM	2.66 µM	9.64 µM	3.67 µM	> 100 µM	13.2 µM	45.1 µM
O=C(Nc1ccccc1C(F)(F)F)c1ccc(NC2=C(Cl)C(=O)N(Cc3ccccc3)C2=O)cc1	23.5 µM	> 100 µM	36.6 µM	> 100 µM	13.6 µM	92.2 µM	24 µM	58.3 µM	58 µM	> 100 µM	11.3 µM	35.2 µM	2.95 µM	12.7 µM	33.7 µM	> 100 µM	> 100 µM	> 100 µM	16.3 µM	35.6 µM
O=C(Nc1cccc(-n2cc(-c3ccncc3)c(-c3ccc(O)c(Cl)c3)n2)c1)c1cc(C(F)(F)F)cc(C(F)(F)F)c1	2.54 µM	> 50 µM	12.8 µM	> 50 µM	10.3 µM	> 50 µM	4.34 µM	46.6 µM	8.33 µM	37.7 µM	0.822 µM	4.15 µM	2.21 µM	> 50 µM	3.93 µM	18.3 µM	5.15 µM	31.4 µM	3.06 µM	> 50 µM
NC(Cc1c[nH]c2ccc(F)cc12)C(=O)O (stereo unspecified)	728 µM	> 2500 µM	1680 µM	> 2500 µM	626 µM	> 2500 µM	580 µM	1620 µM	814 µM	> 2500 µM	–	> 2500 µM	1090 µM	> 2500 µM	1200 µM	> 2500 µM	911 µM	> 2500 µM	1810 µM	> 2500 µM
